# Tested on: GM3
# Experiment: GM3 Elisa assay
# Assay type: cell-based
# Details: 48 h, Table 1; B16-FO cells, 2 days incubation; read-out: IC50_uM_Mean
# Method in brief: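 Cellular GM3 ELISA: fixed cells probed with monoclonal anti-GM3 (NeuAc), HRP-conjugated anti-IgM and fluorogenic Quantablu substrate, read at Ex 325/Em 420. Cells were B16-FO, treated 2 days after a 6 h attachment on collagen-coated wells.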
row,IC50 [µM],Compound
1,0.1 to 1,"CC(=O)CCc1ccc(OCCC(=O)N[C@H](CN2CCCC2)[C@H](O)c2ccc3c(c2)OCCO3)cc1 [Compound 193, N-((1R,2R)-1-(2,3-dihydrobenzo[b][1,4]dioxin-6-yl)-1-hydroxy-3-(pyrrolidin-1-yl)propan-2-yl)-3-(4-(3-oxobutyl)phenoxy)propanamide (2R,3R)-2,3-dihydroxysuccinate]"
2,≤ 0.1,"O=C(NCc1ccc(F)cc1)N[C@H](CN1CCCC1)[C@H](O)c1ccc2c(c1)OCCO2 [Compound 17, 1-((1R,2R)-1-(2,3-dihydrobenzo[β][1,4]dioxin-6-yl)-1-hydroxy-3-(pyrrolidin-1-yl)propan-2-yl)-3-(4-fluorobenzyl)urea]"
3,0.1 to 1,"O=C(CCOc1ccc(F)cc1)N[C@H](CN1CCCC1)[C@H](O)c1ccc2c(c1)OCCO2 [Compound 58, N-((1R,2R)-1-(2,3-dihydrobenzo[β][1,4]dioxin-6-yl)-1-hydroxy-3-(pyrrolidin-1-yl)propan-2-yl)-3-(4-fluorophenoxy)propanamide]"
4,≤ 0.1,"COc1ccc(C(=O)CCCCCC(=O)N[C@H](CN2CCCC2)[C@H](O)c2ccc3c(c2)OCCO3)cc1 [Compound 156, N-((1R,2R)-1-(2,3-dihydrobenzo[β][1,4]dioxin-6-yl)-1-hydroxy-3-(pyrrolidin-1-yl)propan-2-yl)-7-(4-methoxyphenyl)-7-oxoheptanamide]"
5,≤ 0.1,"COc1ccc(OCCCC(=O)N[C@H](CN2CCCC2)[C@H](O)c2ccc3c(c2)OCCO3)cc1 [Compound 197, N-((1R,2R)-1-(2,3-dihydrobenzo[β][1,4]dioxin-6-yl)-1-hydroxy-3-(pyrrolidin-1-yl)propan-2-yl)-4-(4-methoxyphenoxy)butanamide (2S,3S)-2,3-dihydroxysuccinate]"

# Same assay, conditions: 48 h, Table 2; B16-FO cells, 2 days incubation; read-out: IC50_uM_Mean
row,IC50 [µM],Compound
1,3 to 10,O=C(N[C@H](CN1CCCC1)[C@H](OC(=O)c1ccc(-c2ccccn2)s1)c1ccc2c(c1)OCCO2)c1ccc(-c2ccccn2)s1 [Compound 242]
2,≤ 0.1,"COc1ccc(C(=O)CCCCC(=O)N[C@H](CN2CCCC2)[C@H](O)c2ccc3c(c2)OCO3)cc1 [Compound 267, N-((1R,2R)-1-(benzo[δ][1,3]dioxol-5-yl)-1-hydroxy-3-(pyrrolidin-1-yl)propan-2-yl)-6-(4-methoxyphenyl)-6-oxohexanamide (2S,3S)-2,3-dihydroxysuccinate]"
3,0.1 to 1,O=C(CCCc1nc(-c2ccc(Cl)cc2)no1)N[C@H](CN1CCCC1)[C@H](OC(=O)CCCc1nc(-c2ccc(Cl)cc2)no1)c1ccc2c(c1)OCCO2 [Compound 253]
4,≤ 0.1,"CC(C)Oc1ccc(C(=O)CCCCCC(=O)N[C@H](CN2CCCC2)[C@H](O)c2ccc3c(c2)OCO3)cc1 [Compound 268, N-((1R,2R)-1-(benzo[δ][1,3]dioxol-5-yl)-1-hydroxy-3-(pyrrolidin-1-yl)propan-2-yl)-7-(4-isopropoxyphenyl)-7-oxoheptanamide (2S,3S)-2,3-dihydroxysuccinate]"
5,≤ 0.1,CCCCCCCC(=O)N[C@H](CN1CCC(CN2CCCC2)C1)[C@H](O)c1ccc2c(c1)OCCO2 (stereo partly drawn) [Compound 313]
6,≤ 0.1,CC(=O)O[C@H](c1ccc2c(c1)OCCO2)[C@@H](CN1CCCC1)NC(=O)NCc1ccccc1 [Compound 243]

# Same assay, conditions: Table 2; B16-FO cells, 2 days incubation; read-out: IC50_uM_Mean
row,IC50 [µM],Compound
1,1 to 3,COc1ccc([C@@H](O)[C@@H](CN2CCCC2)NC(=O)OCc2ccccc2)cc1 [Compound 246]

# Same assay, conditions: Table 3 (IC 50 Values); B16-FO cells; read-out: IC50_uM_Mean
row,Compound,IC50 [µM]
1,COc1ccc(OCCC(=O)N[C@H](CN2CCCC2)[C@H](O)c2ccc3c(c2)OC(F)(F)O3)cc1 [Compound 407],1 to 3
2,O=C(N[C@H](CN1CCCC1)[C@H](O)c1ccc2c(c1)OC(F)(F)O2)OCc1ccccc1 [Compound 404],3 to 10
3,COc1ccc([C@@H](O)[C@@H](CO)NC(=O)OCc2ccccc2)c(OC)c1 [Compound 352],3 to 10
4,COc1ccc(C(=O)CCCCC(=O)N[C@H](CN2CCCC2)[C@H](O)c2ccc(O)cc2)cc1 [Compound 414],0.1 to 1
5,COc1ccc(OCCOc2ccc([C@@H](O)C(CN3CCCC3)NC(=O)CCCCC(=O)c3ccc(OC)cc3)cc2)cc1 (stereo partly drawn) [Compound 416],≤ 0.1
6,CCCCCCCC(=O)N[C@H](CN1CCCC1)[C@H](O)c1sccc1C [Compound 360],0.1 to 1
7,COc1ccc(C(=O)CCCCCC(=O)N[C@H](CN2CCCC2)[C@H](O)c2ccc(C)c(F)c2)cc1 [Compound 350],≤ 0.1
8,COc1ccc(C(=O)CCCCC(=O)N[C@H](CN2CCCC2)[C@H](O)c2ccc(Cl)cc2)cc1 [Compound 384],0.1 to 1
9,O=C(N[C@H](CN1CCCC1)[C@H](O)c1ccc2c(c1)OC(F)(F)C(F)(F)O2)OCc1ccccc1 [Compound 399],1 to 3
10,CCCCCCOc1ccc([C@@H](O)[C@@H](CN2CC[C@@H](F)C2)NC(=O)CCCCCC(=O)c2ccc(OC)cc2)cc1 [Compound 371],≤ 0.1
11,O=C(Cc1ccc(OC(F)(F)F)cc1)N[C@H](CN1CCCC1)[C@H](O)c1ccc2c(c1)OC(F)(F)O2 [Compound 410],3 to 10

# Next, values leading:
row,IC50 [µM],Compound
1,1 to 3,COc1ccc(OCCC(=O)N[C@H](CN2CCC[C@H]2C)[C@@H](O)c2ccc3c(c2)OCCO3)cc1 [Compound 528]
2,3 to 10,COc1cc([C@@H](O)[C@@H](CN2CCCC2)NC(=O)CCCCCC(C)=O)cc(OC)c1OC [Compound 671]
3,0.1 to 1,COc1ccc(OCCC(=O)N[C@H](CN2CC[C@@H](F)C2)[C@H](O)c2ccc(OC(C)C)cc2)cc1 [Compound 452]
4,0.1 to 1,COc1ccc(OCCC(=O)N[C@H](CN2C[C@@H]3CC[C@H]2C3)[C@H](O)c2ccc3c(c2)OCCO3)cc1 [Compound 544]
5,1 to 3,COc1ccc(C(=O)CCCCCC(=O)N[C@H](CN2CCCCC2C)[C@H](O)c2ccc3c(c2)OCCO3)cc1 (stereo partly drawn) [Compound 607]
6,3 to 10,CCCCCCCCCCCCCCCC(=O)N[C@H](CNCc1ccccc1)[C@H](O)c1ccc2c(c1)OCCO2 [Compound 678]
7,≤ 0.1,CCCCCCOc1ccc([C@@H](O)[C@@H](CN2CC[C@H](O)C2)NC(=O)CCOc2ccc(OC)cc2)cc1 [Compound 454]
8,3 to 10,COc1ccc(OCCC(=O)N(Cc2ccc(-c3nc(C)no3)cc2)[C@H](CN2CCCC2)[C@H](O)c2ccc(O)cc2)cc1 [Compound 721]
9,≤ 0.1,COc1ccc(C(=O)CCCCC(=O)N[C@H](CN2CCCC2)[C@H](O)c2ccc(OCc3ccccc3)cc2)cc1 [Compound 706]
10,0.1 to 1,CCCCCCCC(=O)N[C@H](CN1C[C@@H]2CC[C@H]1C2)[C@H](O)c1ccc2c(c1)OCCO2 [Compound 545]
11,1 to 3,CCCCCCCC(=O)N[C@H](CN1CCCC1)[C@H](O)c1ccc(C(F)(F)F)cc1 [Compound 488]
12,0.1 to 1,O=C(CCCCCC(F)(F)C1CC1)N[C@H](CN1CCCC1)[C@H](O)c1ccc2c(c1)OCCO2 [Compound 630]
13,≤ 0.1,CC[C@H](C)COc1ccc([C@@H](O)[C@@H](CN2CCCC2)NC(=O)CCCCC(=O)c2ccc(OC)cc2)cc1 [Compound 441]
14,1 to 3,COc1ccc(C(=O)CCCCCC(=O)N[C@H](CN2CCC(C)(C)C2)[C@H](O)c2ccc3c(c2)OCCO3)cc1 [Compound 520]
15,3 to 10,O=C(CC12CC3CC(CC(C3)C1)C2)N[C@@H](CN1CCCC1)C(O)c1ccc2c(c1)OCCO2 (stereo partly drawn) [Compound 636]
16,0.1 to 1,CC(=O)c1ccc(OCCCC(=O)N[C@H](CN2CCCC2)[C@H](O)c2ccc(OC(C)C)cc2)cc1 [Compound 724]
17,0.1 to 1,COc1ccc(C(=O)CCCC(=O)N[C@H](CN2CC[C@@H](F)C2)[C@H](O)c2ccc(OC(C)C)cc2)cc1 [Compound 444]

row,IC50 [µM],Compound
1,0.1 to 1,CCCCCCCC(=O)N[C@H](CN1CCCC1)[C@H](O)c1ccc(OC(F)(F)F)cc1 [Compound 667]
2,3 to 10,CCCCCCCC(=O)N[C@H](CN1CCC[C@H]1C(F)(F)F)[C@H](O)c1ccc2c(c1)OCCO2 [Compound 543]
3,0.1 to 1,CCCCOc1ccc([C@@H](O)[C@@H](CN2CC[C@@H](F)C2)NC(=O)CCCCC(=O)c2ccc(F)cc2)cc1 [Compound 658]
4,1 to 3,O=C(CCCCOCC(F)(F)F)N[C@H](CN1CCCC1)[C@H](O)c1ccc2c(c1)OCCO2 [Compound 617]
5,0.1 to 1,O=C(CCCCC(=O)c1ccc(F)cc1)N[C@H](CN1CCCC1)[C@H](O)c1ccc2c(c1)OCCO2 [Compound 640]
6,0.1 to 1,CCCCOc1ccc([C@@H](O)[C@@H](CN2CC[C@@H](F)C2)NC(=O)CCCCCOCCF)cc1 [Compound 660]
7,3 to 10,O=C(COC1CCCCC1)N[C@H](CN1CCCC1)[C@H](O)c1ccc2c(c1)OCCO2 [Compound 645]
8,≤ 0.1,COc1ccc(C(=O)CCCCC(=O)N[C@H](CN2CCCC2)[C@H](O)c2ccc(OCCC(C)C)cc2)cc1 [Compound 438]
9,≤ 0.1,COc1ccc(C(=O)CCCCC(=O)N[C@H](CN2CC[C@H](O)C2)[C@H](O)c2ccc(OCCCCF)cc2)cc1 [Compound 495]
10,3 to 10,COc1ccc(OCCC(=O)N(Cc2ccc(-c3noc(C)n3)cc2)[C@H](CN2CCCC2)[C@H](O)c2ccc(O)cc2)cc1 [Compound 720]
11,3 to 10,O=C(CCCCS(=O)(=O)C1CCCCC1)N[C@H](CN1CCCC1)[C@H](O)c1ccc2c(c1)OCCO2 [Compound 557]
12,1 to 3,COc1ccc(C(=O)CCCC(=O)N[C@H](CN2CCCC2)[C@H](O)c2ccc(-c3ccccc3)cc2)cc1 [Compound 696]
13,3 to 10,COc1ccc(C(=O)CCCCCC(=O)N[C@@H](CO)C(O)c2ccc3c(c2)OCCO3)cc1 (stereo partly drawn) [Compound 477]
14,3 to 10,CCCCCCCC(=O)N[C@@H](CN1CCCC1)[C@H](O)c1ccc2c(c1)OCCO2 [Compound 672]
15,3 to 10,COc1ccc(C(=O)CCCCC(=O)N(CC(=O)c2ccc(OC)cc2)[C@H](CN2CCCC2)[C@H](O)c2ccc(O)cc2)cc1 [Compound 424]
16,3 to 10,CCCCCCCC(=O)N[C@H](CN1CCCCC1C)[C@H](O)c1ccc2c(c1)OCCO2 (stereo partly drawn) [Compound 605]
17,1 to 3,COc1ccc(C(=O)CCCCCC(=O)N[C@H](CN2[C@H](C)CC[C@H]2C)[C@H](O)c2ccc3c(c2)OCCO3)cc1 [Compound 548]

# Source: US8304447B2, “2-acylaminopropoanol-type glucosylceramide synthase inhibitors” (Genzyme Corporation, priority 2007, dated 2012)
